Assay results published in PubChem BioAssay AID2060492 (Molecular Pharmacology Branch, DTP, NCI, 2025).

System: 695427-040-R-J1-PDC complex spheroids, viability percent T/C
Assay: Anticancer human tumor 695427-040-R-J1-PDC patient-derived colon adenocarcinoma cell line growth inhibition [GQUAD]
Conditions: for IC50: curve of first compound; for viability, T/C: stronger effect = lower value; active = viability on the fitted dose curve at most 10% of control; inactive = the rest
Source text: DNA G-quadruplex Stabilizer Agents in Combinations in Complex Spheroids
A high-throughput screen of multi-cell type tumor spheroids was designed to identify active combinations of DNA G-quadruplex stabilizer agents and targeted small molecules. Complex spheroids include a stromal component modeled by human endothelial cells (HUVEC) and fibroblasts modeled by human mesenchymal stem cells (MSCs). The concentration ranges selected for each drug and investigational agent were based upon clinically achievable concentrations if the clinical Cmax of the agent was known.
Compounds. The drugs and investigational agents: pidnarulex (CX-5461; NSC782164), APTO-253 (NSC789042), BRACO-19 (NSC847499), peposertib (NSC802822), ceralasertib (NSC780249), elimusertib (NSC800525), camonsertib (NSC841442), AZD-1390 (NSC803789), olaparib (NSC753686), talazoparib (NSC767125), ART-558 (NSC835418), sotorasib (NSC818433), MRTX-1133 (NSC836407), SN-38 (NSC673596), topotecan (NSC609699), etoposide (NSC141540), doxorubicin (NSC123127), gemcitabine (NSC613327), 5-fluorouracil (NSC19893), paclitaxel (NSC125973), vemurafenib (NSC761431), panobinostat (NSC761190), R-306465 (JNJ-16241199; NSC773264), adavosertib (NSC754352), TP-3654 (NSC805149), carboplatin (NSC241240), KSQ-4279 (NSC840948), and staurosporine (NSC755774) were obtained from the National Cancer Institute (NCI) Developmental Therapeutics Program Chemical Repository (34). The FDA-approved anticancer drug set is available from the NCI Developmental Therapeutics Program. […] The stock solutions were prepared in dimethyl sulfoxide (DMSO, Sigma-Aldrich, St. Louis, MO, cat. D2650) at 800-fold the tested concentration and stored at -70 degrees C prior to their use. All drugs and investigational agents were tested over a range starting from a high concentration at or near the clinical Cmax and decreasing in half-log increments. If the clinical Cmax for an agent had not been determined, the highest concentration tested was 10 microM.
2.3 Cell Culture. All cells were maintained in an incubator at 37 degrees C and 5% CO2 with 95% humidity. The PDC lines were cultured according to standard operating procedures established by the NCI PDMR. All PDCs were thawed and cultured in Matrigel-coated flasks prepared with a working solution of 1X Ham's F-12 nutrient mix, without supplementation (Invitrogen, cat. 11765054), 100 U/mL penicillin-streptomycin (Invitrogen, cat. 15140122), and 2.5% Matrigel (Corning Inc., cat. 354248) for the first three passages. The 857933-349-R-J2-PDC line was cultured in 6C/Colon 1B media, which includes advanced DMEM/F-12 (Thermo Fisher Scientific, cat. 12634028), 10 mM HEPES (Thermo Fisher Scientific, cat. 15630080), 1X GlutaMAX supplement (Thermo Fisher Scientific, cat. 35050061), 0.1 mg/mL primocin (InvivoGen, cat. ant-pm-2), 10% defined fetal bovine serum, heat inactivated (HyClone Laboratories Inc., cat. SH30070.03HI), 50% L-WRN conditioned media (ATCC, cat. CRL-3276), 1.25 mM N-Acetyl-L-cysteine (Sigma-Aldrich, cat. A9165), 10 mM nicotinamide (Sigma-Aldrich, cat. N0636), 1X B-27 supplement (Thermo Fisher Scientific, cat. 17504044), 1X N-2 supplement (Thermo Fisher Scientific, cat. 17502048), 10 microM Y-27632 dihydrochloride (Tocris Bioscience, cat. 1254), and 50 ng/mL human EGF recombinant protein (Thermo Fisher Scientific, cat. PHG0311). The 485176-168-R4-J1-PDC line was cultured in Panc media, which includes all 6C/Colon 1B media components plus 100 ng/mL human FGF-10 (Thermo Fisher Scientific, cat. 100-26), 500 nM SB-431542 (Selleckchem, cat. S1067), and gastrin (Tocris, cat. 3006).
[…]

[1] = second compound 0.0316 µM, first compound 0.0316 µM
[2] = second compound 0.0316 µM, first compound 0.316 µM
[3] = second compound 0.1 µM, first compound 0.0316 µM
[4] = second compound 0.1 µM, first compound 0.316 µM
[5] = second compound 0.316 µM, first compound 0.0316 µM
[6] = second compound 0.316 µM, first compound 0.316 µM
[7] = second compound 1 µM, first compound 0.0316 µM
[8] = second compound 1 µM, first compound 0.316 µM
[9] = second compound 3.16 µM, first compound 0.0316 µM
[10] = second compound 3.16 µM, first compound 0.316 µM
[11] = second compound 10 µM, first compound 0.0316 µM
[12] = second compound 10 µM, first compound 0.316 µM
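Also: spheroids exposed to compounds for seven days before readout.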

C=CC(=O)N1CCN(c2nc(=O)n(-c3c(C)ccnc3C(C)C)c3nc(-c4c(O)cccc4F)c(F)cc23)C(C)C1 (centres undefined) + CN(C)c1ccc(Nc2c3ccc(NC(=O)CCN4CCCC4)cc3nc3cc(NC(=O)CCN4CCCC4)ccc23)cc1
inactive: viability, T/C [1] 107% | viability, T/C (second compound 0.0316 µM, first compound 0.1 µM) 109% | viability, T/C [2] 102% | viability, T/C (second compound 0.0316 µM, first compound 1 µM) 104% | viability, T/C (second compound 0.0316 µM, first compound 3.16 µM) 106% | viability, T/C (second compound 0.0316 µM, first compound 10 µM) 112% | viability, T/C [3] 104% | viability, T/C (second compound 0.1 µM, first compound 0.1 µM) 95% | viability, T/C [4] 104% | viability, T/C (second compound 0.1 µM, first compound 1 µM) 94.6% | viability, T/C (second compound 0.1 µM, first compound 3.16 µM) 103% | viability, T/C (second compound 0.1 µM, first compound 10 µM) 110% | viability, T/C [5] 113% | viability, T/C (second compound 0.316 µM, first compound 0.1 µM) 113% | viability, T/C [6] 107% | viability, T/C (second compound 0.316 µM, first compound 1 µM) 102% | viability, T/C (second compound 0.316 µM, first compound 3.16 µM) 106% | viability, T/C (second compound 0.316 µM, first compound 10 µM) 108% | viability, T/C [7] 97.9% | viability, T/C (second compound 1 µM, first compound 0.1 µM) 106% | viability, T/C [8] 99.7% | viability, T/C (second compound 1 µM, first compound 1 µM) 107% | viability, T/C (second compound 1 µM, first compound 3.16 µM) 108% | viability, T/C (second compound 1 µM, first compound 10 µM) 107% | viability, T/C [9] 107% | viability, T/C (second compound 3.16 µM, first compound 0.1 µM) 90.9% | viability, T/C [10] 100% | viability, T/C (second compound 3.16 µM, first compound 1 µM) 98.5% | viability, T/C (second compound 3.16 µM, first compound 3.16 µM) 101% | viability, T/C (second compound 3.16 µM, first compound 10 µM) 100% | viability, T/C [11] 99.2% | viability, T/C (second compound 10 µM, first compound 0.1 µM) 89.7% | viability, T/C [12] 89.7% | viability, T/C (second compound 10 µM, first compound 1 µM) 92% | viability, T/C (second compound 10 µM, first compound 3.16 µM) 99.1% | viability, T/C (second compound 10 µM, first compound 10 µM) 90.6%
> 10000 nM: IC50 (second compound 0.0316 µM) | IC50 (second compound 0.1 µM) | IC50 (second compound 0.316 µM) | IC50 (second compound 1 µM) | IC50 (second compound 3.16 µM) | IC50 (second compound 10 µM)

CCc1c2c(nc3ccc(O)cc13)-c1cc3c(c(=O)n1C2)COC(=O)[C@]3(O)CC + CN(C)c1ccc(Nc2c3ccc(NC(=O)CCN4CCCC4)cc3nc3cc(NC(=O)CCN4CCCC4)ccc23)cc1
247 nM: IC50 (second compound 3.16 µM)
inactive: viability, T/C (second compound 0.0316 µM, first compound 0.000999 µM) 104% | viability, T/C (second compound 0.0316 µM, first compound 0.00316 µM) 94.5% | viability, T/C (second compound 0.0316 µM, first compound 0.00999 µM) 93.3% | viability, T/C [1] 74.7% | viability, T/C (second compound 0.0316 µM, first compound 0.0999 µM) 70.8% | viability, T/C [2] 51.3% | viability, T/C (second compound 0.1 µM, first compound 0.000999 µM) 108% | viability, T/C (second compound 0.1 µM, first compound 0.00316 µM) 90.2% | viability, T/C (second compound 0.1 µM, first compound 0.00999 µM) 85.4% | viability, T/C [3] 73.2% | viability, T/C (second compound 0.1 µM, first compound 0.0999 µM) 68.5% | viability, T/C [4] 53.2% | viability, T/C (second compound 0.316 µM, first compound 0.000999 µM) 103% | viability, T/C (second compound 0.316 µM, first compound 0.00316 µM) 94% | viability, T/C (second compound 0.316 µM, first compound 0.00999 µM) 84% | viability, T/C [5] 75% | viability, T/C (second compound 0.316 µM, first compound 0.0999 µM) 64.2% | viability, T/C [6] 49.6% | viability, T/C (second compound 1 µM, first compound 0.000999 µM) 99.2% | viability, T/C (second compound 1 µM, first compound 0.00316 µM) 89.3% | viability, T/C (second compound 1 µM, first compound 0.00999 µM) 82.1% | viability, T/C [7] 76.1% | viability, T/C (second compound 1 µM, first compound 0.0999 µM) 66.8% | viability, T/C [8] 51% | viability, T/C (second compound 3.16 µM, first compound 0.000999 µM) 94.2% | viability, T/C (second compound 3.16 µM, first compound 0.00316 µM) 97.8% | viability, T/C (second compound 3.16 µM, first compound 0.00999 µM) 85.7% | viability, T/C [9] 76.5% | viability, T/C (second compound 3.16 µM, first compound 0.0999 µM) 64.2% | viability, T/C [10] 46.2% | viability, T/C (second compound 10 µM, first compound 0.000999 µM) 90.2% | viability, T/C (second compound 10 µM, first compound 0.00316 µM) 88% | viability, T/C (second compound 10 µM, first compound 0.00999 µM) 71.9% | viability, T/C [11] 69.2% | viability, T/C (second compound 10 µM, first compound 0.0999 µM) 60.7% | viability, T/C [12] 46.3%
> 316 nM: IC50 (second compound 0.0316 µM) | IC50 (second compound 0.1 µM) | IC50 (second compound 0.316 µM) | IC50 (second compound 1 µM)
252 nM: IC50 (second compound 10 µM)
